The text below walks through data of US10590086B2, “Pharmaceutical compound” (IOmet Pharma Ltd., priority 2014, dated 2020).

The target of assay [1] is T1, TDO (Homo sapiens, UniProt P48775). Put plainly: A172 kynurenine cell-based assay. Further details: This assay utilised cancer cells which expressed either TDO or IDO; endogenous in cells; host or cells: A172 (human glioblastoma). The settings on record: A172 human glioblastoma cells, 48 hours, 500 μM L-tryptophan; read-out: A172 Kynurenine cell based assay pIC50 (converted). In outline: (§1)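 Kynurenine in the culture supernatant was measured by absorbance at 490 nm after 5 minutes with Ehrlich's reagent. Cells had been exposed ±compound for 48 hours at 37 °C in phenol red-free RPMI, 10% FCS, 2 mM L-glutamine and 500 μM L-tryptophan. Seeding was 30,000/well for A172 (TDO) and 40,000/well for SKOV3 (IDO, induced with 500 ng/ml IFN-γ).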
T1 sequence (P48775 whole entry): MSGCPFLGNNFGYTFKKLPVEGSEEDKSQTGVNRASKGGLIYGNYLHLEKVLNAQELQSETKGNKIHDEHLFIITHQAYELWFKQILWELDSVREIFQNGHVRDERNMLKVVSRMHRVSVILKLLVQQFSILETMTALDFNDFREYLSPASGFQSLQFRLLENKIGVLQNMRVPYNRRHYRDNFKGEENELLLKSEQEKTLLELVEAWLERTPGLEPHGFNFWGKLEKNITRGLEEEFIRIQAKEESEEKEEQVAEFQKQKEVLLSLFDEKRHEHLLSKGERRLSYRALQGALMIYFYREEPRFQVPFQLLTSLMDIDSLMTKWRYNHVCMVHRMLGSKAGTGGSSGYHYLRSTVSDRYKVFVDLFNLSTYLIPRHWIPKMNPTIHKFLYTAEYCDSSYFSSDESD

Assay [2] has as its target T1, TDO. Put plainly: hTDO biochemical coupled assay. To be noted: 330 μM L-tryptophan, 17 minutes, room temperature; read-out: hTDO biochemical assay pIC50 (converted).
Source text: (§2) Two different assays were employed: 1. a cell-based assay for detecting the effect of test compounds on kynurenine production in two different cancer cell types. This assay utilised cancer cells which expressed either TDO or IDO and as such was used as a means of testing compound activity at these two enzymes in a cell-based context. 2. a TDO and IDO biochemical coupled assay which utilised recombinantly produced and purified TDO and IDO enzymes in combination with the enzyme formamidase. This coupled enzyme system allowed conversion of N-formylkynurenine produced by TDO or IDO activity to kynurenine which was then quantified by fluorescence following addition of Erhlich's Reagent The protocols for these are set out below.
Assay [3] deals with T2, IDO (Homo sapiens, UniProt P14902). As to the kind of experiment: SKOV3 kynurenine cell-based assay (IDO induced by IFN-γ). To be noted: SKOV3 human ovarian adenocarcinoma cells, 500 ng/ml IFN-γ, 48 hours, 500 μM L-tryptophan; read-out: SKOV3 Kynurenine cell based assay pIC50 (converted). Further details: IDO expression was induced in the SKOV3 cells by the addition of 500 ng/ml IFN-γ; endogenous in cells; host or cells: SKOV3 (human ovarian adenocarcinoma), induced with IFN-γ. In outline: as §1
T2 sequence (P14902 whole entry): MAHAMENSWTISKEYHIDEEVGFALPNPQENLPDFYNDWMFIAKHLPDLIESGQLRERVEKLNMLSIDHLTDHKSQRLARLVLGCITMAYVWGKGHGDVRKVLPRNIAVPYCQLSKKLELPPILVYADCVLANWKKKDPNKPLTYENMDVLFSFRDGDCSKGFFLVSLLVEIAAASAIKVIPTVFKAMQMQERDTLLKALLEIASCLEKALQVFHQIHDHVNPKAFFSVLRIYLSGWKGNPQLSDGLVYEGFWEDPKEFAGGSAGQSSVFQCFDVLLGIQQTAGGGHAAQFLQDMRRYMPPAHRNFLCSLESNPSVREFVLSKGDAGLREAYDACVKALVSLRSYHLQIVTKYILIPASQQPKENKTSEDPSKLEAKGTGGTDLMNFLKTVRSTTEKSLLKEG

Assay [4] has as its target T2, IDO. Put plainly: hIDO biochemical coupled assay. The settings on record: 45 μM L-tryptophan, 17 minutes, room temperature; read-out: hIDO biochemical assay pIC50 (converted).
Source text: as §2

Turning to `CS(=O)(=O)N1CCN(c2cccc3[nH]ncc23)CC1` [Compound 10], the IC50 at TDO [1] was 3.24 to 31.6 µM; at TDO [2], 3.24 to 31.6 µM; at IDO [3], 32.4 to 100 µM; on IDO [4], above 100 µM.

Regarding `CC(C)S(=O)(=O)N1CCN(c2cccc3[nH]ncc23)CC1` [Compound 22], the IC50 at TDO [1] is 3.24 to 31.6 µM; at TDO [2], 3.24 to 31.6 µM; at IDO [3], 32.4 to 100 µM; on IDO [4], above 100 µM.

For `O=C1CC2(CCN(c3cc(Cl)cc4[nH]ncc34)CC2)CN1` [Compound 280], the IC50 on TDO [1] is below 3.16 µM; at TDO [2], below 3.16 µM; on IDO [3], 3.24 to 31.6 µM; at IDO [4] it was 3.24 to 31.6 µM.

Take `Cn1ncc2c1CCN(c1cc(Cl)cc3[nH]ncc13)C2` [Compound 369]: the IC50 is below 3.16 µM at TDO [1], below 3.16 µM at TDO [2], 3.24 to 31.6 µM at IDO [3] and 3.24 to 31.6 µM on IDO [4].

On to `CC(=O)Nc1ccc(C2CCN(c3cc(Cl)cc4[nH]ncc34)CC2)cc1` [Compound 441], for which the IC50 on TDO [1] is below 3.16 µM; at TDO [2], below 3.16 µM; at IDO [3] it was below 3.16 µM; at IDO [4] it was above 100 µM.

For `CS(=O)(=O)NCCN1C(=O)NC2(CCN(c3cc(Cl)cc4[nH]ncc34)CC2)C1=O` [Compound 416], the IC50 was below 3.16 µM at TDO [1], below 3.16 µM on TDO [2], 3.24 to 31.6 µM at IDO [3] and below 3.16 µM at IDO [4].

For the compound `COC(C)c1cc(Cl)cc2[nH]ncc12` (stereo not shown) [Compound 287], the IC50 on TDO [1] was 3.24 to 31.6 µM; at TDO [2] it was 3.24 to 31.6 µM; on IDO [3], above 100 µM; on IDO [4], above 100 µM.

Consider `CN(C)S(=O)(=O)c1ccc(-c2cc(Cl)cc3[nH]ncc23)cc1` [Compound 277], for which the IC50 at TDO [1] is below 3.16 µM; on TDO [2], below 3.16 µM; on IDO [3], 3.24 to 31.6 µM; on IDO [4] it was above 100 µM.

`OC(c1ccccc1)c1cc(Cl)cc2[nH]ncc12` (stereo not shown) [Compound 271]: the IC50 at TDO [1] was below 3.16 µM; at TDO [2], below 3.16 µM; at IDO [3], 32.4 to 100 µM; on IDO [4], above 100 µM.

`O=C1NC2(CCN(c3cc(Cl)cc4[nH]ncc34)CC2)C(=O)N1CC1CCOCC1` [Compound 391]: the IC50 at TDO [1], on TDO [2], on IDO [3] and at IDO [4] was below 3.16 µM each time.

As for `CC(=O)N1CCC(CNC(=O)c2cc(Cl)cc3[nH]ncc23)CC1` [Compound 295], the IC50 was above 100 µM on TDO [1], above 100 µM at TDO [2], 32.4 to 100 µM on IDO [3] and above 100 µM on IDO [4].

In the case of `Cc1nc2c(n1C)CN(c1cc(Cl)cc3[nH]ncc13)CC2` [Compound 356], the IC50 at TDO [1] was 3.24 to 31.6 µM; on TDO [2] it was 3.24 to 31.6 µM; at IDO [3] it was 3.24 to 31.6 µM; at IDO [4], above 100 µM.

`CC(=O)N1CCC2(CC1)CCN(c1cc(Cl)cc3[nH]ncc13)CC2` [Compound 352]: the IC50 at TDO [1] was below 3.16 µM; on TDO [2], below 3.16 µM; at IDO [3], below 3.16 µM; on IDO [4] it was 3.24 to 31.6 µM.

`CN(C)C(=O)CC1CCN(c2cc(Cl)cc3[nH]ncc23)CC1` [Compound 362]: the IC50 on TDO [1] was 3.24 to 31.6 µM; at TDO [2], below 3.16 µM; at IDO [3], 3.24 to 31.6 µM; at IDO [4], above 100 µM.

As to `O=C1NC2(CCN(c3cc(Cl)cc4[nH]ncc34)CC2)C(=O)N1CC1CCCCC1` [Compound 389], the IC50 at TDO [1], at TDO [2], on IDO [3] and at IDO [4] was below 3.16 µM throughout.

On to `CS(=O)(=O)N1CCC(c2cc(C(F)F)cc3[nH]ncc23)CC1` [Compound 387], for which the IC50 on TDO [1] was below 3.16 µM; at TDO [2], below 3.16 µM; at IDO [3] it was 3.24 to 31.6 µM; on IDO [4], 3.24 to 31.6 µM.

For `C[C@H]1CN(S(C)(=O)=O)CCN1c1cc(C(F)(F)F)cc2[nH]ncc12` [Compound 214], the IC50 was below 3.16 µM on TDO [1], below 3.16 µM at TDO [2], 3.24 to 31.6 µM on IDO [3] and 32.4 to 100 µM at IDO [4].

With `Clc1cc(N2CCN(c3ncccn3)CC2)c2cn[nH]c2c1` [Compound 309], the IC50 was below 3.16 µM on TDO [1], 3.24 to 31.6 µM on TDO [2], above 100 µM on IDO [3] and above 100 µM at IDO [4].

`CC(=O)N1CCN(c2cc(C#N)cc3[nH]ncc23)CC1` [Compound 323]: the IC50 is 32.4 to 100 µM on TDO [1], above 100 µM on TDO [2], 32.4 to 100 µM at IDO [3] and above 100 µM at IDO [4].

Regarding `CC1(C)CN(c2cc(OC(F)(F)F)cc3[nH]ncc23)CCN1S(C)(=O)=O` [Compound 219], the IC50 on TDO [1] was below 3.16 µM; at TDO [2], below 3.16 µM; on IDO [3] it was 3.24 to 31.6 µM; at IDO [4], 3.24 to 31.6 µM.

For the compound `Clc1cc(N2CCN(c3ccccn3)CC2)c2cn[nH]c2c1` [Compound 324], the IC50 is below 3.16 µM on TDO [1], below 3.16 µM at TDO [2], 3.24 to 31.6 µM at IDO [3] and above 100 µM on IDO [4].

With `NS(=O)(=O)N1CCC2(CCN(c3cc(Cl)cc4[nH]ncc34)CC2)C1` [Compound 361], the IC50 is below 3.16 µM on TDO [1], below 3.16 µM at TDO [2], 3.24 to 31.6 µM on IDO [3] and 3.24 to 31.6 µM at IDO [4].

With `CS(=O)(=O)c1ccc(-c2cc(Cl)cc3[nH]ncc23)c(F)c1` [Compound 297], the IC50 was below 3.16 µM at TDO [1], below 3.16 µM at TDO [2], below 3.16 µM on IDO [3] and 3.24 to 31.6 µM on IDO [4].

In the case of `OC1(c2ccccc2)CCN(c2cc(Cl)cc3[nH]ncc23)CC1` [Compound 207], the IC50 was below 3.16 µM on TDO [1], below 3.16 µM on TDO [2], 3.24 to 31.6 µM on IDO [3] and 3.24 to 31.6 µM at IDO [4].

For `CS(=O)(=O)N1CCC(c2cccc3[nH]ncc23)CC1` [Compound 12], the IC50 on TDO [1] was 3.24 to 31.6 µM; at TDO [2], 3.24 to 31.6 µM; on IDO [3], above 100 µM; at IDO [4], above 100 µM.

As to `CC(=O)N(C)c1cc(N2CCN(S(C)(=O)=O)C(C)(C)C2)c2cn[nH]c2c1` [Compound 311], the IC50 is 3.24 to 31.6 µM at TDO [1], 32.4 to 100 µM on TDO [2], 3.24 to 31.6 µM at IDO [3] and above 100 µM on IDO [4].

On to `CC(=O)N1CCN(c2cccc3[nH]ncc23)CC1(C)C` [Compound 25], for which the IC50 at TDO [1] was below 3.16 µM; at TDO [2], below 3.16 µM; at IDO [3], 3.24 to 31.6 µM; at IDO [4] it was 32.4 to 100 µM.

In the case of `CC(=O)N1CCC2(CC1)CN(c1cc(Cl)cc3[nH]ncc13)C2` [Compound 452], the IC50 was below 3.16 µM on TDO [1], below 3.16 µM on TDO [2], below 3.16 µM on IDO [3] and above 100 µM at IDO [4].

In the case of `CC1(C)CN(c2cccc3[nH]ncc23)CCN1S(C)(=O)=O` [Compound 26], the IC50 at TDO [1] was below 3.16 µM; on TDO [2], below 3.16 µM; on IDO [3] it was 3.24 to 31.6 µM; at IDO [4] it was 3.24 to 31.6 µM.

Take `CN1CNC(=O)C12CCN(c1cc(Cl)cc3[nH]ncc13)CC2` [Compound 380]: the IC50 at TDO [1] is 3.24 to 31.6 µM; on TDO [2] it was 3.24 to 31.6 µM; at IDO [3] it was 3.24 to 31.6 µM; at IDO [4] it was above 100 µM.

As to `c1ccc(Nc2cccc3[nH]ncc23)cc1` [Compound 36], the IC50 at TDO [1] is 3.24 to 31.6 µM; on TDO [2] it was below 3.16 µM; at IDO [3] it was above 100 µM; on IDO [4] it was above 100 µM.

On to `CC(C)CN1C(=O)NC2(CCN(c3cc(Cl)cc4[nH]ncc34)CC2)C1=O` [Compound 388], for which the IC50 on TDO [1], at TDO [2], at IDO [3] and on IDO [4] was below 3.16 µM throughout.

In the case of `CS(=O)(=O)N1CCC(c2cc(N3CCCC3)cc3[nH]ncc23)CC1` [Compound 383], the IC50 on TDO [1] was 32.4 to 100 µM; on TDO [2], above 100 µM; on IDO [3] it was above 100 µM; at IDO [4], above 100 µM.

As for `O=C(O)C1CCN(c2cc(Cl)cc3[nH]ncc23)CC1` [Compound 301], the IC50 on TDO [1] was 3.24 to 31.6 µM; at TDO [2] it was below 3.16 µM; on IDO [3] it was above 100 µM; at IDO [4], 32.4 to 100 µM.

Take `Cc1nn(C)c2c1CN(c1cc(Cl)cc3[nH]ncc13)CC2` [Compound 376]: the IC50 at TDO [1] was below 3.16 µM; at TDO [2] it was below 3.16 µM; at IDO [3] it was 3.24 to 31.6 µM; at IDO [4] it was above 100 µM.

`CS(=O)(=O)Nc1ccc(C2CCN(c3cc(Cl)cc4[nH]ncc34)CC2)cc1` [Compound 437]: the IC50 at TDO [1] is below 3.16 µM; at TDO [2] it was below 3.16 µM; at IDO [3], below 3.16 µM; at IDO [4], 3.24 to 31.6 µM.

In the case of `O=C1NCCN1C1CCN(c2cc(Cl)cc3[nH]ncc23)CC1` [Compound 410], the IC50 at TDO [1] is below 3.16 µM; at TDO [2], below 3.16 µM; on IDO [3], 3.24 to 31.6 µM; on IDO [4] it was above 100 µM.
